Reference: ChEMBL document CHEMBL5537110, “SIRT1-dependent mitochondrial biogenesis supports therapeutic effects of 4-butyl-polyhydroxybenzophenone compounds against NAFLD” (Eur J Med Chem, 2023)
Active and inactive are the calls of the source. The calls are words filed in the database; no cut-off is given here.

Key:
EA.hy 926 [1] = test: Cytoprotective activity against H2O2-induced toxicity in human EA.hy 926 cells assessed as protective rate at 10 uM pretreated with compound for 4 hrs followed by incubation with H2O2 for 2 hrs by absorbance based analysis; format: functional; details: time 6 hrs
EA.hy 926 [2] = test: Cytoprotective activity against H2O2-induced toxicity in human EA.hy 926 cells assessed as protective rate pretreated with compound for 4 hrs followed by incubation with H2O2 for 2 hrs by absorbance based analysis; format: functional, cell-based
[3] = target: T1, NAD-dependent protein deacetylase sirtuin-1 (Homo sapiens) (UniProt Q96EB6); test: Binding affinity to SIRT1 (unknown origin) by surface plasmon resonance assay; details: filed as activator
T1 sequence (whole entry): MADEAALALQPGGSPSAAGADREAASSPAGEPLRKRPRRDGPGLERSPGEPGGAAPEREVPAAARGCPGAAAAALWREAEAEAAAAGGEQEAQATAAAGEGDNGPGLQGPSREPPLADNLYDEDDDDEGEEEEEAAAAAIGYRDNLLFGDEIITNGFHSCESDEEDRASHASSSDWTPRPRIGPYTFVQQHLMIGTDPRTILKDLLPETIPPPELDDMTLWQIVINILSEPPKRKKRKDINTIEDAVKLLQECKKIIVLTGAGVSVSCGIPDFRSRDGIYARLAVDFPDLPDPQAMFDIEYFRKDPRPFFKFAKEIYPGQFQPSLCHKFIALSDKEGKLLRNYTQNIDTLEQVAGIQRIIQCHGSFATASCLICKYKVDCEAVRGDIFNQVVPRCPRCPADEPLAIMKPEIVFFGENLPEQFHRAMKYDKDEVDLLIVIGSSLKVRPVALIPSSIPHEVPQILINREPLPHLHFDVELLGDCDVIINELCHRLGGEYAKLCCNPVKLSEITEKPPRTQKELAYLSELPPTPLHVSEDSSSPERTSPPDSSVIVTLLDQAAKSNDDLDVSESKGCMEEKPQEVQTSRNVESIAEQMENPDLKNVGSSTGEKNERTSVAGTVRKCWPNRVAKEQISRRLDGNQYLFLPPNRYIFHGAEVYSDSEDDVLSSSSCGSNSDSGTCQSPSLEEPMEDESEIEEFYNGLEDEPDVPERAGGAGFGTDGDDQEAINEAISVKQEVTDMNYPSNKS

[4] = target: T2, Peroxisome proliferator-activated receptor gamma coactivator 1-alpha (Homo sapiens) (UniProt Q9UBK2); test: Binding affinity to PGC1alpha (unknown origin) by surface plasmon resonance assay; details: filed as activator
T2 sequence (whole entry): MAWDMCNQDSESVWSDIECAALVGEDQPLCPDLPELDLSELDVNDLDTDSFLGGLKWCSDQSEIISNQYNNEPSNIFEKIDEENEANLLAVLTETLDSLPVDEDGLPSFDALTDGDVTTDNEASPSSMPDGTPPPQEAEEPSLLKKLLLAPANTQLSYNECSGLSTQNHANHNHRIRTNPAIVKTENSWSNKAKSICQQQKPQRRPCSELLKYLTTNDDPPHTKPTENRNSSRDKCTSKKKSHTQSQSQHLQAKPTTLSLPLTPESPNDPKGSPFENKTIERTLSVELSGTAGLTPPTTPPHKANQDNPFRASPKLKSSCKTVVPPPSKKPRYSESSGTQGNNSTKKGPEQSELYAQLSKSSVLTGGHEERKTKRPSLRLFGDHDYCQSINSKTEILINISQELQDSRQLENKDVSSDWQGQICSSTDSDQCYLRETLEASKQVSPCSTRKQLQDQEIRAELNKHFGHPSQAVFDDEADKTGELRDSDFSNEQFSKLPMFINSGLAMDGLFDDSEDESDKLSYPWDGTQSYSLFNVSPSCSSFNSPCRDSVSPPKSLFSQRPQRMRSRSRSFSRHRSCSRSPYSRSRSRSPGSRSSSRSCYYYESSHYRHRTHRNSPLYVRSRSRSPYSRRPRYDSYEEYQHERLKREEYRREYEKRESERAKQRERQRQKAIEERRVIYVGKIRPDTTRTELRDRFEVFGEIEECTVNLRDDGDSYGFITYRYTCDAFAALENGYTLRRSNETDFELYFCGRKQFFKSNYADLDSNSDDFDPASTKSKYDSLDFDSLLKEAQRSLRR

SMILES	Activity (EA.hy 926 [1]) [%]	EC50 (EA.hy 926 [2]) [nM]	Activity [3]	Activity [4]
CC(C)Cc1ccc(C(=O)c2ccc(O)c(O)c2)cc1	93.75	81	Active	Active
Cc1c(O)ccc(C(=O)c2ccc(C(C)(C)C)cc2)c1O	-67.36			
CC(C)Cc1ccc(C(=O)c2c(O)cc(O)cc2O)cc1	21.63			
CC(C)Cc1ccc(C(=O)c2ccc(O)c(O)c2O)cc1	93.75	118	Active	Active
CCCCc1ccc(C(=O)c2c(O)cc(O)cc2Cl)cc1	38.47			
CCCCc1ccc(C(=O)c2ccc(O)c(O)c2O)cc1	64.71			
CCCCc1ccc(C(=O)c2cc(O)c(O)cc2F)cc1	58.82			
CC(C)(C)c1ccc(C(=O)c2ccc(O)c(O)c2O)cc1	-6.9			
CCCCc1ccc(C(=O)c2ccc(O)c(C)c2O)cc1	2.8			
CC(C)(C)c1ccc(C(=O)c2c(O)cc(O)cc2O)cc1	-64			
CC(C)(C)c1ccc(C(=O)c2cc(O)ccc2O)cc1	-7			
CCCCc1ccc(C(=O)c2cc(O)c(Cl)cc2O)cc1	21.66			
CC(C)Cc1ccc(C(=O)c2cc(O)c(Cl)cc2O)cc1	-3.92			
CCCCc1ccc(C(=O)c2c(O)cc(O)cc2O)cc1	36.04			
Cc1c(O)ccc(C(=O)c2ccc(CC(C)C)cc2)c1O	17.37			
CC(C)(C)c1ccc(C(=O)c2c(O)cc(O)cc2Cl)cc1	-49			
COc1cc(O)cc(Cl)c1C(=O)c1ccc(CC(C)C)cc1	2.99			
CC(C)Cc1ccc(C(=O)c2c(O)cc(O)cc2Cl)cc1	-8.4			
O=c1c(O)c(-c2ccc(O)c(O)c2)oc2cc(O)cc(O)c12 [QUERCETIN]	55.2	2670		
CC(C)(C)c1ccc(C(=O)c2cc(O)c(O)cc2F)cc1	80.56	104	Active	Active
CCCCc1ccc(C(=O)c2c(Cl)cc(O)cc2OC)cc1	11.76			
CC(C)Cc1ccc(C(=O)c2cc(O)c(O)cc2F)cc1	93.75	80.8	Active	Active
COc1cc(O)cc(Cl)c1C(=O)c1ccc(C(C)(C)C)cc1	-64			
CCCCc1ccc(C(=O)c2ccc(O)c(O)c2)cc1	70.59	84.2	Active	Active
CC(C)Cc1ccc(C(=O)c2cc(O)ccc2O)cc1	8.96			
CC(C)(C)c1ccc(C(=O)c2cc(O)c(Cl)cc2O)cc1	-67			
CCCCc1ccc(C(=O)c2cc(O)ccc2O)cc1	39.03			
